{"source": "patent US20120328588A1", "about": "“COMPOUND PREPARATION AND ITS USES FOR PREVENTION AND TREATMENT OF HEARING IMPAIRMENT” (The Second Military Medical University of Chinese PLA, priority 2010, published 2012)", "key": {"[1]": {"system": "guinea pigs exposed to noise", "assay": "Preventive effect on noise-induced hearing impairment: hearing threshold shift of guinea pigs, drug given two days before noise exposure", "type": "in vivo", "method": "Experiments with Hearing Threshold Shift Sixty-four guinea pigs with normal weight and pure white hair were randomly divided into control group, alpha-lipoic acid group, nimodipine group, and compound preparation group. The guinea pigs were exposed to an octave band of noise (OBN) centered at 4 kHz, 115 dB SPL, 4 h per day. Two days before noise exposure, animals in the study groups were administered with the corresponding drug dose as designed, and those in the control group were administered with normal saline (NS). Hearing threshold shift of the animals was determined at different intervals of noise exposure in different groups. The synergistic effect of alpha-lipoic acid and nimodipine on regulating hearing threshold shift was observed and analyzed using q test.\n(§1) Being less than 20 dB was considered as an effective value. The synergistic effect of alpha-lipoic acid and nimodipine was analyzed using q test. Pla=2/8 means that there were 8 guinea pigs in the alpha-lipoic acid group, within which 2 were effective, and the remaining 6 were invalid. The mean of the rest was analogous to Pla=2/8."}, "[2]": {"system": "guinea pigs exposed to noise", "assay": "Therapeutic effect on noise-induced hearing impairment: hearing threshold shift of guinea pigs, drug given intravenously within 7 days after noise exposure", "type": "in vivo", "method": "Eighty guinea pigs with normal weight and pure white hair were randomly divided into control group, alpha-lipoic acid group, nimodipine group, and compound preparation group. The animals were exposed to an octave band of noise (OBN) centered at 4 kHz, 115 dB SPL, 4 h per day. Animals in the study groups were administered intravenously with the corresponding drug dose as designed, and those in the control group were administered with NS within 7 days after noise exposure. Hearing threshold shift of the animals was determined at different intervals of noise exposure in different groups. The synergistic effect of alpha-lipoic acid and nimodipine on regulating hearing threshold shift was observed and analyzed using q test.\nas §1, with “test. Pla=4/10” for “test. Pla=2/8”, “were 10” for “were 8”, “which 4” for “which 2”, “to Pla=4/10.” for “to Pla=2/8.”"}}}
{"molecule": "O=C(O)CCCCC1CCSS1", "note": "(stereo not shown) [LA, 1-2 dithiolane-3-pentanoic acid]", "values": [{"measurement": "Mean change in hearing threshold shift", "setting": "[1]; LA 80 mg/kg, at 1st after exposure", "value": 32.5, "unit": "dB"}, {"measurement": "Mean change in hearing threshold shift", "setting": "[1]; LA 80 mg/kg, at 7th day after exposure", "value": 20.5, "unit": "dB"}, {"measurement": "P (effective guinea pigs / guinea pigs in group)", "setting": "[1]; LA 80 mg/kg, effective = mean hearing threshold shift less than 20 dB within 7 days of exposure to noise", "value": "Pla = 2/8"}, {"measurement": "Mean change in hearing threshold shift", "setting": "[2]; LA 80 mg/kg intravenously, 2 weeks after exposure", "value": 20.5, "unit": "dB"}, {"measurement": "Mean change in hearing threshold shift", "setting": "[2]; LA 80 mg/kg intravenously, at 1st day after exposure", "value": 32.5, "unit": "dB"}, {"measurement": "P (effective guinea pigs / guinea pigs in group)", "setting": "[2]; LA 80 mg/kg intravenously, effective = mean hearing threshold shift less than 20 dB within 7 days after noise exposure", "value": "Pla = 4/10"}]}
{"molecule": "COCCOC(=O)C1=C(C)NC(C)=C(C(=O)OC(C)C)C1c1cccc([N+](=O)[O-])c1", "note": "(stereo not shown) [NIM, Nimodipine]", "values": [{"measurement": "Mean change in hearing threshold shift", "setting": "[1]; NIM 2 mg/kg, at 1st after exposure", "value": 41.0, "unit": "dB"}, {"measurement": "Mean change in hearing threshold shift", "setting": "[1]; NIM 2 mg/kg, at 7th day after exposure", "value": 23.5, "unit": "dB"}, {"measurement": "Mean change in hearing threshold shift", "setting": "[1]; NIM 4 mg/kg, at 1st after exposure", "value": 38.5, "unit": "dB"}, {"measurement": "Mean change in hearing threshold shift", "setting": "[1]; NIM 4 mg/kg, at 7th day after exposure", "value": 24, "unit": "dB"}, {"measurement": "Mean change in hearing threshold shift", "setting": "[1]; NIM 8 mg/kg, at 1st after exposure", "value": 38, "unit": "dB"}, {"measurement": "Mean change in hearing threshold shift", "setting": "[1]; NIM 8 mg/kg, at 7th day after exposure", "value": 22.0, "unit": "dB"}, {"measurement": "Mean change in hearing threshold shift", "setting": "[1]; NIM 16 mg/kg, at 1st after exposure", "value": 36, "unit": "dB"}, {"measurement": "Mean change in hearing threshold shift", "setting": "[1]; NIM 16 mg/kg, at 7th day after exposure", "value": 22.0, "unit": "dB"}, {"measurement": "Mean change in hearing threshold shift", "setting": "[2]; NIM 2 mg/kg intravenously, 2 weeks after exposure", "value": 23.5, "unit": "dB"}, {"measurement": "Mean change in hearing threshold shift", "setting": "[2]; NIM 2 mg/kg intravenously, at 1st day after exposure", "value": 41.0, "unit": "dB"}, {"measurement": "Mean change in hearing threshold shift", "setting": "[2]; NIM 4 mg/kg intravenously, 2 weeks after exposure", "value": 24, "unit": "dB"}, {"measurement": "Mean change in hearing threshold shift", "setting": "[2]; NIM 4 mg/kg intravenously, at 1st day after exposure", "value": 38.5, "unit": "dB"}, {"measurement": "Mean change in hearing threshold shift", "setting": "[2]; NIM 8 mg/kg intravenously, 2 weeks after exposure", "value": 22.0, "unit": "dB"}, {"measurement": "Mean change in hearing threshold shift", "setting": "[2]; NIM 8 mg/kg intravenously, at 1st day after exposure", "value": 38, "unit": "dB"}, {"measurement": "Mean change in hearing threshold shift", "setting": "[2]; NIM 16 mg/kg intravenously, 2 weeks after exposure", "value": 22.0, "unit": "dB"}, {"measurement": "Mean change in hearing threshold shift", "setting": "[2]; NIM 16 mg/kg intravenously, at 1st day after exposure", "value": 36, "unit": "dB"}]}
